Source: patent US8748448B2, “Combination analgesic employing opioid agonist and neutral antagonist” (AIKO Biotechnology, priority 2007, dated 2014)
Values joined by “and” are separate entries in the source; they are usually repeats but may differ in a detail not shown here. Identical values can stand only once. “Also recorded” adds a separate entry of the source.

Tests used:
[1] = system: morphine-induced pupil constriction; assay: Pupillometry with 10 mg morphine i.v.; type: in vivo, human; details: doses up to 20 mg i.v.
[2] = system: stereotypic circling induced by morphine; details: non-dependent and chronically dependent mice; cited from earlier work
[3] = Tolerability of i.v. 6β-naltrexol infusion in opioid-naïve volunteers; details: i.v. infusion over 30 minutes, up to 20 mg
[4] = system: gastrointestinal activity in methadone-dependent subjects; assay: Methadone maintenance subjects: laxation and oral-cecal transit time; type: in vivo, human
Text: The aims of this first-in-human study were to examine the pharmacokinetics of 6β-naltrexol to measure two key characteristics of 6β-naltrexol in highly opioid dependent persons: unwanted aspects of opioid antagonism such as withdrawal, and preferential suppression of opioid effects on the gastrointestinal tract compared to the central nervous system. Eight subjects were enrolled. Of these subjects, four were ineligible for dosing with 6β-naltrexol: three due to small bowel bacterial overgrowth and one due to difficulty with IV catheter insertion. […] The remaining two subjects tolerated the 1.0 mg dose and reported a willingness to take higher doses of 6β-naltrexol.
Laxation was experienced for one subject (25%; 101 minutes post dose) at the 0.05 mg dose, three subjects (75%; 2, 17, and 40 minutes post dose) at the 0.5 mg dose, and two subjects (67%; both at 5 minutes post dose) at the 1.0 mg dose. […] In the two subjects who did undergo oral-cecal transit time testing (lactulose/H2 test), 6β-naltrexol accelerated GI transit time at doses of 0.25 mg and above. A quantitative evaluation of this test was not possible because of insufficient number of subjects (data from only two subjects were evaluable, while a third subject had elevated base-line H2 levels, and a fourth subject was not tested), but a detectable reversal of GI slowing at 0.25 mf 6β-naltrexol is consistent with the finding that regulator bowel movement occurred with two subjects at 0.5 mg 6β-naltrexol.

[5] = system: opioid withdrawal in methadone-dependent subjects; assay: Double-blind ascending dose study in methadone maintenance subjects: withdrawal scales, VAS, vital signs, pupillometry, tolerability; details: for tolerability: b346: at all but the highest dose (1.0 mg)
[6] = Oral bioavailability of the neutral antagonists
[7] = Concentrations in plasma and brain tissue after i.p. injection (LC/MS/MS); details: for plasma concentration as metabolite after the naltrexone dose: after naltrexone 1 mg/kg i.p.
[8] = Neutral antagonist comparison (Table 3)
[9] = Methadone maintenance subjects: serum 6β-naltrexol pharmacokinetics; type: in vivo, human; details: 1.0 mg dose
Protocol: Using an assay with a lower limit of quantification of 0.5 ng/mL, 6β-naltrexol was detectable in plasma for only six hours. Determination of terminal half-life of elimination was not feasible because of lack of sufficient assay sensitivity.

[10] = system: morphine-induced analgesia; assay: Cold pressor test with 10 mg morphine i.v.; type: in vivo, human; details: doses up to 20 mg i.v.
[11] = system: hydrocodone effects: GI transit (peripheral) vs. antinociception (central); assay: Peripheral vs. central potency, (antinociception ID50)/(GI transit ID50); type: in vivo, mice
[12] = system: morphine-induced slowing of gastrointestinal transit; assay: Oral-cecal transit time (lactulose-hydrogen breath test) with 10 mg morphine i.v.; type: in vivo, human
[13] = system: morphine-induced antinociception; details: cited from earlier work
[14] = 1 mg/kg i.p., 60 min after injection
[15] = 10 mg/kg i.p., 10 min after injection
[16] = 10 mg/kg i.p., 60 min after injection

Substance: 6β-naltrexol
- effect on morphine-induced pupil constriction [1]: no detectable effect
- effect on stereotypic circling induced by morphine [2]: prevents
- tolerability [3]: well tolerated
- subjects experiencing laxation ([4]; 0.05 mg dose): 25%
- time of laxation post dose ([4]; 0.05 mg dose): 101 min
- subjects experiencing laxation ([4]; 0.5 mg dose): 75%
- effect on bowel movement ([4]; 0.5 mg i.v.): near normal bowel movement; also recorded: immediate bowel movement
- subjects experiencing laxation ([4]; 1.0 mg dose): 67%
- time of laxation post dose ([4]; 1.0 mg dose, both subjects): 5 min
- Lowest dose producing laxation ([4]; individual patients): 0.5 mg (2×) and 0.05 mg
- dose sufficient initially to cause laxation ([4]; iv, methadone maintenance patients): 0.5 mg
- doses accelerating GI transit time (lactulose/H2 test) ([4]; two evaluable subjects): ≥ 0.25 mg
- withdrawal symptoms ([5]; 0.5 mg i.v., methadone-dependent subjects): minimal peripheral withdrawal and no detectable CNS withdrawal
- subjects tolerating the dose rather well ([5]; 1 mg i.v.): 3 of 4
- overall withdrawal (VAS, SOWS, OOWS, vital signs) ([5]; 0.05-1.0 mg): minimal
- tolerability ([5]; 0.05-1.0 mg): well tolerated
- tolerability ([5]; 0.05-1.0 mg, listed as 6β-Naltrexol): generally well tolerated
- Diastolic BP, peak value ([5]; dose 0.05 mg): 83.0 ± 5.9 mmHg
- Heart Rate, peak value ([5]; dose 0.05 mg): 61.8 ± 6.2 bpm
- SOWS (total), peak value ([5]; dose 0.05 mg): 0.8 ± 1.0
- Systolic blood pressure (BP), peak value ([5]; dose 0.05 mg): 121.3 ± 7.0 mmHg
- VAS Any Drug Effect, peak value ([5]; dose 0.05 mg): 0.5 ± 1.0
- VAS Bad Drug Effect, peak value ([5]; dose 0.05 mg): 0.8 ± 1.5
- VAS Good Drug Effect, peak value ([5]; dose 0.05 mg): 0.3 ± 0.5
- VAS Opioid Withdrawal, peak value ([5]; dose 0.05 mg): 1.3 ± 2.5
- VAS Sickness, peak value ([5]; dose 0.05 mg): 0.50 ± 1.00
- OOWS (total), peak value ([5]; dose 0.05 mg, mean ± standard deviation): 0.8 ± 0.5
- Diastolic BP, peak value ([5]; dose 0.15 mg): 76.5 ± 5.1 mmHg
- Heart Rate, peak value ([5]; dose 0.15 mg): 59.5 ± 2.9 bpm
- OOWS (total), peak value ([5]; dose 0.15 mg): 1.5 ± 0.6
- SOWS (total), peak value ([5]; dose 0.15 mg): 1.3 ± 1.9
- Systolic blood pressure (BP), peak value ([5]; dose 0.15 mg): 118.5 ± 10.0 mmHg
- VAS Any Drug Effect, peak value ([5]; dose 0.15 mg): 1.5 ± 1.7
- VAS Bad Drug Effect, peak value ([5]; dose 0.15 mg): 17.9 ± 32.5
- VAS Good Drug Effect, peak value ([5]; dose 0.15 mg): 2.2 ± 2.8
- VAS Opioid Withdrawal, peak value ([5]; dose 0.15 mg): 1.4 ± 1.3
- VAS Sickness, peak value ([5]; dose 0.15 mg): 9.3 ± 17.2
- Diastolic BP, peak value ([5]; dose 0.5 mg): 80.3 ± 5.7 mmHg
- Heart Rate, peak value ([5]; dose 0.5 mg): 61.8 ± 5.7 bpm
- OOWS (total), peak value ([5]; dose 0.5 mg): 3.5 ± 1.3
- SOWS (total), peak value ([5]; dose 0.5 mg): 4.3 ± 2.2
- Systolic blood pressure (BP), peak value ([5]; dose 0.5 mg): 118.8 ± 7.6 mmHg
- VAS Any Drug Effect, peak value ([5]; dose 0.5 mg): 34.3 ± 15.7
- VAS Bad Drug Effect, peak value ([5]; dose 0.5 mg): 42.5 ± 23.7
- VAS Good Drug Effect, peak value ([5]; dose 0.5 mg): 6.5 ± 12.3
- VAS Opioid Withdrawal, peak value ([5]; dose 0.5 mg): 21.0 ± 29.7
- VAS Sickness, peak value ([5]; dose 0.5 mg): 15.8 ± 18.1
- Diastolic BP, peak value ([5]; dose 1.0 mg): 88.3 ± 12.7 mmHg
- Heart Rate, peak value ([5]; dose 1.0 mg): 71.7 ± 4.9 bpm
- OOWS (total), peak value ([5]; dose 1.0 mg): 5.3 ± 4.0
- SOWS (total), peak value ([5]; dose 1.0 mg): 4.3 ± 2.8
- Systolic blood pressure (BP), peak value ([5]; dose 1.0 mg): 134.7 ± 26.4 mmHg
- VAS Any Drug Effect, peak value ([5]; dose 1.0 mg): 24.0 ± 21.7
- VAS Bad Drug Effect, peak value ([5]; dose 1.0 mg): 26.9 ± 33.0
- VAS Good Drug Effect, peak value ([5]; dose 1.0 mg): 1.0 ± 0.0
- VAS Opioid Withdrawal, peak value ([5]; dose 1.0 mg): 13.1 ± 8.1
- VAS Sickness, peak value ([5]; dose 1.0 mg): 9.0 ± 5.6
- Would continue after highest dose ([5]; individual patients): No and Yes (3×)
- pupillometry measures (a CNS effect) ([5]; up to 1 mg): unaffected
- oral bioavailability (into the circulation), estimated ([6]; humans, estimated): approximately 25%
- bioavailability ([6]; rodent, previously determined data not shown): 14%
- oral bioavailability ([6]; species not stated): ~20%
- Brain concentration ([7]; 1 mg/kg i.p., 10 min after injection): 7 ± 6 ng/g
- Plasma concentration ([7]; 1 mg/kg i.p., 10 min after injection, mean±SD, n=3): 61 ± 7 ng/mL
- Brain concentration [7, 14]: 9 ± 1 ng/g
- Plasma concentration [7, 14]: 24 ± 28 ng/mL
- Brain concentration [7, 15]: 89 ± 6 ng/g
- Plasma concentration [7, 15]: 857 ± 122 ng/mL
- Brain concentration [7, 16]: 74 ± 14 ng/g
- Plasma concentration [7, 16]: 75 ± 25 ng/mL
- change of levels at 60 min from those measured at 10 min ([7]; after i.p. injection): had not changed
- plasma concentration as metabolite after the naltrexone dose ([7]; 10 min): 1.9 ng/mL
- plasma concentration as metabolite after the naltrexone dose ([7]; 60 min): 1.7 ng/mL
- detectability as metabolite after the naltrexone dose ([7]; plasma and brain tissue, method sensitive to approximately 1 ng/mL (g)): detectable in plasma but not brain tissue
- Half-life of active metabolites [8]: 12 h
- Bioavailability for CNS (central) effects ([8]; given orally): ~25%
- Strength (as compared to 6β-naltrexol) ([8]; given orally, opioid agonist naïve or non-dependent subject): 1
- AUC ([9]; Subject 1): 7.8 ng·h/mL
- CL ([9]; Subject 1): 128 L/h
- t1/2 ([9]; Subject 1): 2.2 h
- AUC ([9]; Subject 2): 7.6 ng·h/mL
- CL ([9]; Subject 2): 131 L/h
- t1/2 ([9]; Subject 2): 2.43 h
- Cmax ([9]; Subject 2, serum): 3.2 ng/mL
- effect on morphine-induced analgesia [10]: no detectable effect
- Fold-Shift (antinociception ID50)/(GI transit ID50) ([11]; antagonist p.o./hydrocodone p.o. co-administered): 9.53 and 9.5
- selectivity in blocking peripheral over central opioid effects ([11]; mice, oral administration, earlier experiments): approximately tenfold
- therapeutic window (peripheral side effects reduced without inhibition of analgesia) ([11]; mouse, orally co-administered with hydrocodone): 0.1 to 3.0 mg/kg
- fold more potent peripherally than centrally ([11]; over all administration routes): 5-10 fold
- effect of 20 mg on morphine's GI effects ([12]; 20 mg i.v., 10 mg morphine i.v.): completely blocking; also recorded: completely suppressing
- peripheral over central potency ([12]; humans): at least tenfold
- effect on morphine-induced antinociception ([13]; administered intraperitoneally, Wang et al. 2001): reverses
- potency for reversing morphine-induced antinociception, less potent than naltrexone ([13]; published observation, depending on route of administration): 5-10 fold
